From ChEMBL document CHEMBL4257221, “Peptides comprising non-natural amino acids and methods of making and using the same” (2016) come the findings set out here.

By EC50 is commonly meant the concentration needed to bring the measured effect to its halfway point.

Structures are written as SMILES. Activity calls are given as the source filed them. The rule behind the calls is not given here. Numbered stars: 1 amine (or outer) side, 2 acyl side, 3 side chain; on linkers, the order of the positions; unused ones are H or OH. Square brackets hold non-standard residues; d marks the D form. Peptide text beside a SMILES is read from it. ξ: configuration not given here. X1 = O=C([C@H]1CCC[C@@H]1N[*:1])[*:2]; X2 = O=C([C@H]1CNC[C@@H]1N[*:1])[*:2]; ξβ3hL = CC(C)CC(N)CC(=O)O; ξβ3hK = NCCCCC(N)CC(=O)O; ξβ3hT = CC(O)C(N)CC(=O)O; ξβ3hV = CC(C)C(N)CC(=O)O; βAla = NCCC(=O)O

Data set [1] concerns Mus musculus. Description: Stimulation of Treg cells function in C57BL/6 mouse splenocytes assessed as suppression of anti-CD3-stimulated effector T cell proliferation pretreated ip daily for 5 days followed by splenocytes isolation and co-culture with untreated splenocytes at 1:1 ratio. The class given is functional, organism-based.
Data set [2] concerns Mus musculus. Description: Anti-parkinson's activity in MPTP-induced C57BL/6 mouse model of Parkinson's disease receiving adaptive transfer of splenocytes from 15 ug/day/5 days, ip compound treated donor mouse assessed as TH-positive neurons survival rate in substantia nigra measured on day 7 post MPTP intoxication by FJ-C staining based assay (reference value: 24.5%). The format is functional.

For data set [3], the system named is Mus musculus. Description: Stimulation of Treg cells function in C57BL/6 mouse splenocytes assessed as suppression of anti-CD3-stimulated CD4+/CD25- naive T cells proliferation at 300 ug, ip pretreated daily for 5 days followed by splenocytes isolation and co-culture with CD4+/CD25- naive T cells. The class given is functional, organism-based.
Data set [4] relates to Mus musculus. As to the kind of experiment: Anti-parkinson's activity in MPTP-induced C57BL/6 mouse model of Parkinson's disease receiving adaptive transfer of splenocytes from 15 ug/day/5 days, ip compound treated donor mouse assessed as TH-positive neurons survival rate in substantia nigra at 15 ug/day, ip for 5 days measured on day 7 post MPTP intoxication by FJ-C staining based assay relative to control. The format is functional.

The next data set deals with Proteinase K (Engyodontium album, UniProt P06873). As to the kind of experiment: Stability of the compound assessed as Tritirachium album proteinase K-mediated compound hydrolysis at 250 uM by HPLC analysis. The format is ADME. As to conditions: parengyodontium album.
The next data set has as its target Chymotrypsin (Homo sapiens, UniProt Q99895+P17538+P40313+Q6GPI1). Description: Stability of the compound assessed as chymotrypsin (unknown origin)-mediated compound hydrolysis at 250 uM by HPLC analysis. The format is ADME.
A further data set has as its target Dipeptidyl peptidase 4 (Homo sapiens, UniProt P27487). Description: Stability of the compound assessed as DPP4 (unknown origin)-mediated compound hydrolysis at 250 uM by HPLC analysis. The format is ADME.
For data set [5], the target named is T1, Vasoactive intestinal polypeptide receptor 1 (Homo sapiens, UniProt P32241).
T1 sequence (P32241 whole entry): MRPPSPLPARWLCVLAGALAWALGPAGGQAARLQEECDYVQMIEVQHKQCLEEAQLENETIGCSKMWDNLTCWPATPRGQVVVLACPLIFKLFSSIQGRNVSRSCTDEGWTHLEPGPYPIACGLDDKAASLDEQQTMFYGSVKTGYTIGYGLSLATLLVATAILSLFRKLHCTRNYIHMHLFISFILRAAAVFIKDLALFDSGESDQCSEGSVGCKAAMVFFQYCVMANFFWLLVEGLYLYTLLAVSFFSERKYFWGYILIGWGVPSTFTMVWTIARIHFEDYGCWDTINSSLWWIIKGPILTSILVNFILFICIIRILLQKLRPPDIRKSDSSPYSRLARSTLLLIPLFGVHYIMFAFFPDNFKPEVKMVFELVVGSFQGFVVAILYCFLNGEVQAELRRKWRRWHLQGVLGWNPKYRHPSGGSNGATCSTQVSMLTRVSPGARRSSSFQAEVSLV
As to the kind of experiment: Agonist activity at human VIPR1 expressed in CHOK1 cells assessed as intracellular cAMP accumulation after 60 mins by PathHunter assay. The class given is functional, cell-based.

Data set [6] has as its target T2, Vasoactive intestinal polypeptide receptor 2 (Homo sapiens, UniProt P41587).
T2 sequence (P41587 whole entry): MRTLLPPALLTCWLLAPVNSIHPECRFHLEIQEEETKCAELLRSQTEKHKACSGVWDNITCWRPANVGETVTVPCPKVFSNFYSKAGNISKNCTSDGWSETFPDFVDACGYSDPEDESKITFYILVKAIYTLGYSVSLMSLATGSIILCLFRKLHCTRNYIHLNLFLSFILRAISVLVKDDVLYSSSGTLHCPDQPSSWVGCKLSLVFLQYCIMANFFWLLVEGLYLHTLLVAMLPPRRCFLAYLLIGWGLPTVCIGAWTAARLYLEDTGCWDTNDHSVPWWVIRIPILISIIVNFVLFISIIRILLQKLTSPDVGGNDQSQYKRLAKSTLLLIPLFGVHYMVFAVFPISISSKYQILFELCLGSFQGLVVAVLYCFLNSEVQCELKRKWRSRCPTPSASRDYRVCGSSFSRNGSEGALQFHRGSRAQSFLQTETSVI
As to the kind of experiment: Agonist activity at human VIPR2 expressed in CHOK1 cells assessed as intracellular cAMP accumulation after 60 mins by PathHunter assay. The class given is functional, cell-based.

Data set [7] addresses T1, Vasoactive intestinal polypeptide receptor 1. As to the kind of experiment: Induction of VIPR1 receptor internalization in CHOK1 cells expressing human VIPR1 by beta-galactosidase reporter gene assay. The format is functional, cell-based. Background: In a reporter assay the amount or activity of a reporter protein is the signal.

Sequence of Proteinase K (P06873 whole entry): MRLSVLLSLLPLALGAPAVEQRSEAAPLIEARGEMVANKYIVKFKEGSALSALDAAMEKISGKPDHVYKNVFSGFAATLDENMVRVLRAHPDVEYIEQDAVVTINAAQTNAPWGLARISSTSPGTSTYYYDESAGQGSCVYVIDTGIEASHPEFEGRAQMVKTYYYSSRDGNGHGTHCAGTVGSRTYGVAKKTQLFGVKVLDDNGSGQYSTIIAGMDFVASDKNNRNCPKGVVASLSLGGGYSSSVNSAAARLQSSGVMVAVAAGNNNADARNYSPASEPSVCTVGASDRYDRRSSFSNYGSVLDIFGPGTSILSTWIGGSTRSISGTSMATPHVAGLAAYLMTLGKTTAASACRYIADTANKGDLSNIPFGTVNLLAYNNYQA
Sequence of Dipeptidyl peptidase 4 (P27487 whole entry): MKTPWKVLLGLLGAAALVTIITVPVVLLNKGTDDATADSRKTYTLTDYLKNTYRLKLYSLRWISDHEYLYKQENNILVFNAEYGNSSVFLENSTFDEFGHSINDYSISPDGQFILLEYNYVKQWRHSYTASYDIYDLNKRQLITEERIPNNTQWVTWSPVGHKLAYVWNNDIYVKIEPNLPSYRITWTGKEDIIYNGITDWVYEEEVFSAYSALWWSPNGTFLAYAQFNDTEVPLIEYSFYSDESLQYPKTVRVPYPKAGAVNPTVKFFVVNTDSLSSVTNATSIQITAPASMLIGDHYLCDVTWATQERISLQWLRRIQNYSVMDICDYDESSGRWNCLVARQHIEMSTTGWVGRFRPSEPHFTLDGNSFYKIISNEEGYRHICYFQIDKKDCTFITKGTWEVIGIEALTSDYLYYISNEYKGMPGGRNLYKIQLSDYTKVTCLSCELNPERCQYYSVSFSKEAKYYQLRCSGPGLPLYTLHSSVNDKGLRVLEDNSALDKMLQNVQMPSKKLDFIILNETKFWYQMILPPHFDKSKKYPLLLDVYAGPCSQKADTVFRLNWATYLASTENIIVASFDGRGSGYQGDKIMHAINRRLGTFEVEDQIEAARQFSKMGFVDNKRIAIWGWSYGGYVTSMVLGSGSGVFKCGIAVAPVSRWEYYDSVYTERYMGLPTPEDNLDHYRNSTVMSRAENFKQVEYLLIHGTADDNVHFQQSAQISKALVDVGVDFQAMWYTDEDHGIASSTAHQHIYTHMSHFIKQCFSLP

As to `CC[C@H](C)[C@H](NC(=O)C1CCCN1C(=O)[C@H](CCC(N)=O)NC(=O)[C@H](CC(C)C)NC(=O)[C@H](Cc1ccc(O)cc1)NC(=O)[C@H](CCCCN)NC(=O)[C@H](CCCCN)NC(=O)[C@H](C)NC(=O)C1CCCN1C(=O)[C@@H](NC(=O)[C@H](CCC(N)=O)NC(=O)C1CCCN1C(=O)[C@H](CCCNC(=N)N)NC(=O)[C@H](CC(C)C)NC(=O)[C@H](CCCNC(=N)N)NC(=O)[C@@H](NC(=O)[C@H](Cc1ccc(O)cc1)NC(=O)[C@H](CC(N)=O)NC(=O)[C@H](CC(=O)O)NC(=O)[C@@H](NC(=O)[C@H](Cc1ccccc1)NC(=O)[C@@H](NC(=O)[C@H](C)NC(=O)[C@H](CC(=O)O)NC(=O)[C@H](CO)NC(=O)[C@@H](N)Cc1cnc[nH]1)C(C)C)[C@@H](C)O)[C@@H](C)O)C(C)C)C(=O)N[C@@H](CCCCN)C(=O)N[C@@H](CC(N)=O)C(=O)N[C@@H](CCCCN)C(=O)N[C@@H](CCCNC(=N)N)C(=O)N[C@@H](Cc1ccc(O)cc1)C(=O)O` (some centres undefined), the Activity result with Mus musculus [1] is “Dose-dependent effect”. Further, the Survival is listed as 50.2% in the data set with Mus musculus [2] and 69.1% in the data set with Mus musculus [4]. In addition, in the data set on Mus musculus [3], the result was Active.
In the case of `CCCC[C@H](NC(=O)[C@H](CCC(N)=O)NC(=O)[C@H](CCCCN)NC(=O)[C@H](CCCNC(=N)N)NC(=O)[C@H](CC(C)C)NC(=O)[C@H](CCCCN)NC(=O)[C@@H](NC(=O)[C@H](Cc1ccc(O)cc1)NC(=O)[C@H](CC(N)=O)NC(=O)[C@H](CCC(=O)OC(=O)[C@H](C)NC(=O)[C@H](CC(=O)O)NC(=O)[C@H](CO)NC(=O)[C@H](Cc1c[nH]cn1)NC(C)=O)NC(=O)[C@@H](NC(=O)[C@H](Cc1ccccc1)NC(=O)[C@@H](N)C(C)C)[C@@H](C)O)[C@@H](C)O)C(=O)N[C@@H](C)C(=O)N[C@@H](C)C(=O)N[C@@H](CCCCN)C(=O)N[C@@H](CCCCN)C(=O)N[C@@H](Cc1ccc(O)cc1)C(=O)N[C@@H](CC(C)C)C(=O)N[C@@H](CC(N)=O)C(=O)NC(=O)[C@@H](NC(=O)CNC(=O)CNC(=O)[C@@H]1CCCCN[C@@H](CC(N)=O)C(=O)N[C@@H](CC(C)C)C(=O)N[C@@H](CCCCN)C(=O)N1)[C@@H](C)O`, the Stability result at Proteinase K, on Chymotrypsin and on Dipeptidyl peptidase 4 was “Stable” each time.
`CC(=O)N[C@@H](Cc1cnc[nH]1)C(=O)N[C@H]1CCC[C@@H]1C(=O)N[C@@H](CC(=O)O)C(=O)N[C@@H](C)C(=O)N[C@H]1CCC[C@@H]1C(=O)N[C@@H](Cc1ccccc1)C(=O)N[C@H](C(=O)N[C@@H](CCC(=O)O)C(=O)N[C@@H](CC(N)=O)C(=O)N[C@@H](Cc1ccc(O)cc1)C(=O)N[C@H](C(=O)N[C@@H](CCCCN)C(=O)N[C@@H](CC(C)C)C(=O)N[C@@H](CCCNC(=N)N)C(=O)N[C@@H](CCCCN)C(=O)N[C@@H](CCC(N)=O)C(=O)N[C@@H](CC(C)C)C(=O)N[C@@H](C)C(=O)N[C@@H](C)C(=O)N[C@H]1CNC[C@@H]1C(=O)N[C@@H](CCCCN)C(=O)N[C@@H](Cc1ccc(O)cc1)C(=O)N[C@H]1CCC[C@@H]1C(=O)N[C@@H](CC(N)=O)C(=O)N[C@@H](CC(=O)O)C(=O)N[C@@H](CC(C)C)C(=O)NC(CCCCN)CC(=O)N[C@@H](CCCCN)C(=O)NCC(=O)NCCC(=O)N[C@H](C(=O)O)[C@@H](C)O)[C@@H](C)O)[C@@H](C)O` (stereo partly drawn) (Ac-H[X1]DA[X1]FTENYTKLRKQLAA[X2]KY[X1]NDL[ξβ3hK]KG[βAla]T-OH): the Stability result at Proteinase K, at Chymotrypsin and at Dipeptidyl peptidase 4 was “Stable” throughout. The figures for the EC50 in [5] and in data set [6] were 133 nM and 0.646 nM, respectively.
Consider `CC[C@H](C)[C@H](NC(=O)[C@H](C)NC(=O)[C@H](CC(N)=O)NC(=O)CC(CC(C)C)NC(=O)[C@H](Cc1ccc(O)cc1)NC(=O)[C@H](CCCCN)NC(=O)[C@H](CCCCN)NC(=O)CC(NC(=O)[C@H](C)NC(=O)[C@H](CC(C)C)NC(=O)[C@H](CCC(N)=O)NC(=O)CC(CCCCN)NC(=O)[C@H](CCCNC(=N)N)NC(=O)[C@H](CC(C)C)NC(=O)[C@H](CCCNC(=N)N)NC(=O)CC(NC(=O)[C@H](Cc1ccc(O)cc1)NC(=O)[C@H](CC(N)=O)NC(=O)[C@H](CC(=O)O)NC(=O)[C@@H](NC(=O)[C@H](Cc1ccccc1)NC(=O)[C@@H](NC(=O)[C@H](C)NC(=O)[C@H](CC(=O)O)NC(=O)[C@H](CO)NC(=O)[C@@H](N)Cc1cnc[nH]1)C(C)C)[C@@H](C)O)C(C)O)C(C)C)C(=O)NC(CC(=O)N[C@@H](CC(N)=O)C(=O)O)CC(C)C` (stereo partly drawn) (H-HSDAVFTDNY[ξβ3hT]RLR[ξβ3hK]QLA[ξβ3hV]KKY[ξβ3hL]NAI[ξβ3hL]N-OH), for which the EC50 was found to be 2.17 nM in data set [5] and 10.2 nM in data set [7].
